Measurements from patent publication EP0551518A1, “QUINOLINECARBOXYLIC ACID DERIVATIVE” (NIPPON SHINYAKU COMPANY, LIMITED, priority 1990, dated 1992).
Converted amounts (≈) assume the structure as drawn.

Experiments:
Assay in all cases: Determination of minimal inhibitory concentration of growth (MIC)-1, agar plate dilution method
Type in all cases: cell-based
Escherichia coli KC-14 = details: Escherichia coli, KC14, 18 h, 10⁶ CFU/ml, 37°C, read-out: MIC
Protocol: (§1) Method: MIC was determined by the agar plate dilution method in accordance with the standard protocol of Japan Society of Chemotherapy (cf. Chemotherapy 29 (1), 76-79, 1981). Each bacterial culture obtained by 18-hour incubation in a sensitivity assay bouillon medium at 37°C was diluted to 10⁶ CFU/ml with the same medium. Using a microplanter, a sensitivity assay agar medium containing the test drug was inoculated with the diluted culture and incubated at 37°C for 18 hours. The MIC value was then determined. As reference drugs, 6-fluoro-1-methyl-4-oxo-7-(1-piperazinyl)-4H-[1,3]thiazeto[3,2-a]quinoline-3-carboxylic acid (referred to as control), ciprofloxacin (CPFX) and ofloxacin (OFLX) were used.

[1] = tested on: Staphylococcus aureus OWPH 2125 (MRSA, PCA^r ); details: Staphylococcus aureus, MRSA, 18 h, Staphylococcus aureus OWPH 2125 (MRSA, PCA^r); agar plate dilution, 10⁶ CFU/ml, 37°C, 18 hours; read-out: MIC
Protocol: as §1

Proteus vulgaris HX-19 = details: Proteus vulgaris, HX19, 18 h, Proteus vulgaris HX-19; agar plate dilution, 10⁶ CFU/ml, 37°C, 18 hours; read-out: MIC
Protocol: as §1

[2] = tested on: Staphylococcus aureus Smith; details: Staphylococcus aureus Smith; agar plate dilution, 10⁶ CFU/ml, 37°C, 18 hours; read-out: MIC
Protocol: as §1

[3] = tested on: Staphylococcus aureus 209-P JC-1; details: Staphylococcus aureus, 209P, 18 h, Staphylococcus aureus 209-P JC-1; agar plate dilution, 10⁶ CFU/ml, 37°C, 18 hours; read-out: MIC
Protocol: as §1

[4] = tested on: Micrococcus luteus ATCC 9341; details: ATCC9341; Micrococcus luteus ATCC 9341; agar plate dilution, 10⁶ CFU/ml, 37°C, 18 hours; read-out: MIC
Protocol: as §1

[5] = tested on: Pseudomonas aeruginosa IFO 3445; details: Pseudomonas aeruginosa, IFO3445, 18 h, Pseudomonas aeruginosa IFO 3445; agar plate dilution, 10⁶ CFU/ml, 37°C, 18 hours; read-out: MIC
Protocol: as §1

[6] = tested on: Staphylococcus aureus OWPH 1984 (MRSA); details: Staphylococcus aureus, MRSA, 18 h, Staphylococcus aureus OWPH 1984 (MRSA); agar plate dilution, 10⁶ CFU/ml, 37°C, 18 hours; read-out: MIC
Protocol: as §1

[7] = tested on: Bacillus subtilis ATCC 6633; details: ATCC6633; Bacillus subtilis ATCC 6633; agar plate dilution, 10⁶ CFU/ml, 37°C, 18 hours; read-out: MIC
Protocol: as §1

[8] = tested on: Staphylococcus epider-midis IFO 12993; details: Staphylococcus, IFO12993, 18 h, Staphylococcus epider-midis IFO 12993; agar plate dilution, 10⁶ CFU/ml, 37°C, 18 hours; read-out: MIC
Protocol: as §1

[9] = tested on: Enterococcus faecalis ATCC 29212; details: ATCC29212; Enterococcus faecalis ATCC 29212; agar plate dilution, 10⁶ CFU/ml, 37°C, 18 hours; read-out: MIC
Protocol: as §1

Row | MIC (Escherichia coli KC-14) | MIC [1] | MIC (Proteus vulgaris HX-19) | MIC [2] | MIC [3] | MIC [4] | MIC [5] | MIC [6] | MIC [7] | MIC [8] | MIC [9] | SMILES
1 | 0.39 µg/mL (≈ 1.05 µM) | 0.2 µg/mL (≈ 0.539 µM) | 0.78 µg/mL (≈ 2.1 µM) | 0.025 µg/mL (≈ 0.0673 µM) | 0.1 µg/mL (≈ 0.269 µM) | 0.39 µg/mL (≈ 1.05 µM) | 1.56 µg/mL (≈ 4.2 µM) | 0.025 µg/mL (≈ 0.0673 µM) | 0.012 µg/mL (≈ 0.0323 µM) | 0.1 µg/mL (≈ 0.269 µM) | 0.2 µg/mL (≈ 0.539 µM) | COc1ccc(-c2cc3c(cc2F)c(=O)c(C(=O)O)c2n3C(C)S2)cc1 (stereo not shown) [Example 38, 6-Fluoro-7-(4-methoxyphenyl)-1-methyl-4-oxo-4H-[1,3]th-iazeto[3,2-a]quinoline-3-carboxylic acid]
2 | 0.1 µg/mL (≈ 0.28 µM) | 0.05 µg/mL (≈ 0.14 µM) | 0.025 µg/mL (≈ 0.07 µM) | ≤ 0.006 µg/mL | ≤ 0.006 µg/mL | 0.1 µg/mL (≈ 0.28 µM) | 0.2 µg/mL (≈ 0.56 µM) | 0.012 µg/mL (≈ 0.0336 µM) | ≤ 0.006 µg/mL | ≤ 0.006 µg/mL | 0.1 µg/mL (≈ 0.28 µM) | CC1Sc2c(C(=O)O)c(=O)c3cc(F)c(-c4ccc(O)cc4)cc3n21 (stereo not shown) [Example 44, 6-Fluoro-7-(4-hydroxyphenyl)-1-methyl-4-oxo-4H-[1,3]thiazeto[3,2-a]quinoline-3-carboxylic acid]
3 | 0.2 µg/mL (≈ 0.52 µM) | 0.05 µg/mL (≈ 0.13 µM) | 0.05 µg/mL (≈ 0.13 µM) | ≤ 0.006 µg/mL | 0.025 µg/mL (≈ 0.065 µM) | 0.39 µg/mL (≈ 1.01 µM) | 1.56 µg/mL (≈ 4.06 µM) | 0.025 µg/mL (≈ 0.065 µM) | ≤ 0.006 µg/mL | ≤ 0.006 µg/mL | 0.1 µg/mL (≈ 0.26 µM) | CCNc1ccc(-c2cc3c(cc2F)c(=O)c(C(=O)O)c2n3C(C)S2)cc1 (stereo not shown) [Example 47, 7-(4-Ethylaminophenyl)-6-fluoro-1-methyl-4-oxo-4H-[1,3]thiazeto[3,2-a]quinoline-3-carboxylic acid]
4 | 0.1 µg/mL | 0.05 µg/mL | 0.025 µg/mL | 0.012 µg/mL | 0.025 µg/mL | 0.39 µg/mL | 0.39 µg/mL | 0.012 µg/mL | ≤ 0.006 µg/mL | 0.012 µg/mL | 0.1 µg/mL | CC1Sc2c(C(=O)O)c(=O)c3cc(F)c(-c4ccc(N)cc4)cc3n21.Cl (stereo not shown) [Example 55, 7-(4-Aminophenyl)-6-fluoro-1-methyl-4-oxo-4H-[1,3]thiazeto[3,2-a]quinoline-3-carboxylic acid hydrochloride]

More lines, now with the values behind:

Row | SMILES | MIC (Escherichia coli KC-14) | MIC [1] | MIC (Proteus vulgaris HX-19) | MIC [2] | MIC [3] | MIC [4] | MIC [5] | MIC [6] | MIC [7] | MIC [8] | MIC [9]
5 | COc1c(-c2ccc(N)cc2)c(F)cc2c(=O)c(C(=O)O)c3n(c12)C(C)S3 (stereo not shown) [Example 27, 7-(4-Aminophenyl)-6-fluoro-8-methoxy-1-methyl-4-oxo-4H[1,3]thiazeto[3,2-a]quinoline-3-carboxylic acid] | 0.1 µg/mL (≈ 0.259 µM) | ≤ 0.006 µg/mL | 0.012 µg/mL (≈ 0.0311 µM) | ≤ 0.006 µg/mL | 0.012 µg/mL (≈ 0.0311 µM) | 0.1 µg/mL (≈ 0.259 µM) | 0.78 µg/mL (≈ 2.02 µM) | ≤ 0.006 µg/mL | ≤ 0.006 µg/mL | ≤ 0.006 µg/mL | 0.05 µg/mL (≈ 0.129 µM)
6 | Nc1ccc(-c2cc3c(cc2F)c(=O)c(C(=O)O)c2n3CS2)cc1 [Example 31, 7-(4-Aminophenyl)-6-fluoro-4-oxo-4H-[1,3]thiazeto[3,2-a]quinoline-3-carboxylic acid] | 0.025 µg/mL (≈ 0.073 µM) | 0.2 µg/mL (≈ 0.584 µM) | ≤ 0.006 µg/mL | ≤ 0.006 µg/mL | 0.012 µg/mL (≈ 0.0351 µM) | 1.56 µg/mL (≈ 4.56 µM) | 0.2 µg/mL (≈ 0.584 µM) | 0.025 µg/mL (≈ 0.073 µM) | ≤ 0.006 µg/mL | ≤ 0.006 µg/mL | 0.1 µg/mL (≈ 0.292 µM)
7 | CNc1ccc(-c2cc3c(cc2F)c(=O)c(C(=O)O)c2n3CS2)cc1 [Example 46, 6-Fluoro-7-(4-methylaminophenyl)-4-oxo-4H-[1,3]thiazeto[3,2-a]quinoline-3-carboxylic acid] | 0.1 µg/mL (≈ 0.281 µM) | 0.1 µg/mL (≈ 0.281 µM) | 0.025 µg/mL (≈ 0.0702 µM) | ≤ 0.006 µg/mL | 0.025 µg/mL (≈ 0.0702 µM) | 0.78 µg/mL (≈ 2.19 µM) | 0.78 µg/mL (≈ 2.19 µM) | 0.012 µg/mL (≈ 0.0337 µM) | ≤ 0.006 µg/mL | 0.05 µg/mL (≈ 0.14 µM) | 0.2 µg/mL (≈ 0.561 µM)
8 | CNc1ccc(-c2c(F)cc3c(=O)c(C(=O)O)c4n(c3c2OC)C(C)S4)cc1 (stereo not shown) [Example 49, 6-Fluoro-8-methoxy-1-methyl-7-(4-methylaminophenyl)-4-oxo-4H-[1,3]thiazeto[3,2-a]quinoline-3-carboxylic acid] | 0.39 µg/mL (≈ 0.974 µM) | 0.1 µg/mL (≈ 0.25 µM) | 0.39 µg/mL (≈ 0.974 µM) | ≤ 0.006 µg/mL | 0.025 µg/mL (≈ 0.0624 µM) | 0.2 µg/mL (≈ 0.499 µM) | 3.13 µg/mL (≈ 7.82 µM) | 0.012 µg/mL (≈ 0.03 µM) | ≤ 0.006 µg/mL | 0.012 µg/mL (≈ 0.03 µM) | 0.025 µg/mL (≈ 0.0624 µM)
